The supplement of paper PMC10307832

Compound: C1CC(C2=C(C1)C3=C(N2)C=CC(=C3)Cl)C(=O)N [Selisistat] + C[C@]1(O)C[C@@H](c2nc(-c3ccc4ccc(-c5ccccc5)nc4c3)c3c(N)nccn32)C1 [Linsitinib] (partner 1 µM)
Assay: relative viability (nuclei count vs DMSO), 5 days (fraction); higher = more cells survive
Settings: first compound 0.4 µM
In short: (§1)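 Lung cancer cell lines were pin-tool dosed in 1536-well plates on the day after seeding, with either a lone drug or a fixed anchor-drug dose plus five library-drug doses (not always all listed) in √10 steps. Nuclei were counted on 4× images after 5 days. Relative viability is the ratio of treated-well to vehicle-well nuclei counts, with each value a median of duplicate plates.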

In order of falling relative viability:
1. NCI-H1666  1.18
2. NCI-H1395  1.16
3. LCLC-103H  1.13
4. SK-MES-1  1.11
5. NCI-H838  1.06
6. NCI-H1299  1.06
7. COR-L23  1.04
8. HOP-62  1.04
9. NCI-H596  1
10. LOU-NH91  0.999
11. NCI-H2085  0.985
12. NCI-H1793  0.977
13. NCI-H2405  0.975
14. NCI-H2087  0.953
15. H3255  0.946
16. Calu-6  0.932
17. EBC-1  0.92
18. EMC-BAC-2  0.87
19. SW 1573  0.859
20. NCI-H520  0.823
21. HCC-366  0.808
22. NCI-H2126  0.807
23. COR-L 105  0.755
24. NCI-H1993  0.719
25. HCC-44  0.707
26. A549  0.664
27. NCI-H441  0.648
28. IA-LM  0.632
29. LU99A  0.537
30. NCI-H1703  0.316
31. NCI-H727  0.297
32. LK-2  0.265

Same assay, conditions: first compound 1.265 µM

In order of rising relative viability:
1. NCI-H727  0.292
2. LK-2  0.437
3. IA-LM  0.581
4. HCC-366  0.582
5. A549  0.587
6. LU99A  0.608
7. NCI-H441  0.639
8. NCI-H2126  0.663
9. HCC-44  0.698
10. NCI-H1703  0.703
11. NCI-H1993  0.72
12. NCI-H1666  0.743
13. EMC-BAC-2  0.787
14. NCI-H1793  0.822
15. SW 1573  0.823
16. H3255  0.843
17. COR-L23  0.872
18. EBC-1  0.899
19. COR-L 105  0.918
20. LOU-NH91  0.95
21. NCI-H520  0.954
22. NCI-H2087  0.957
23. Calu-6  0.964
24. NCI-H2085  1
25. NCI-H1299  1.01
26. SK-MES-1  1.04
27. NCI-H838  1.06
28. NCI-H596  1.11
29. LCLC-103H  1.15
30. HOP-62  1.18
31. NCI-H1395  1.28

Same assay, conditions: first compound 4 µM

In order of rising relative viability:
1. HCC-366  0.336
2. LK-2  0.341
3. IA-LM  0.436
4. A549  0.484
5. NCI-H441  0.502
6. NCI-H1703  0.627
7. LU99A  0.657
8. HCC-44  0.669
9. NCI-H2126  0.686
10. SW 1573  0.747
11. EMC-BAC-2  0.777
12. NCI-H2085  0.795
13. LOU-NH91  0.848
14. NCI-H2087  0.885
15. EBC-1  0.892
16. NCI-H1666  0.902
17. COR-L 105  0.933
18. SK-MES-1  0.955
19. H3255  0.973
20. Calu-6  0.981
21. NCI-H520  0.982
22. NCI-H1299  0.996
23. NCI-H1395  1.02
24. NCI-H838  1.03
25. NCI-H596  1.03
26. COR-L23  1.04
27. LCLC-103H  1.07
28. HOP-62  1.07

Same assay, conditions: first compound 12.65 µM

In order of falling relative viability:
1. NCI-H596  1.23
2. LOU-NH91  1.08
3. NCI-H838  1.06
4. SK-MES-1  1.05
5. LCLC-103H  1.03
6. COR-L 105  1.02
7. NCI-H1793  1.01
8. NCI-H1395  1
9. HOP-62  0.978
10. Calu-6  0.975
11. NCI-H1299  0.974
12. NCI-H520  0.967
13. NCI-H2405  0.948
14. SW 1573  0.904
15. COR-L23  0.899
16. H3255  0.827
17. NCI-H1666  0.823
18. NCI-H2085  0.803
19. EBC-1  0.8
20. NCI-H2126  0.758
21. EMC-BAC-2  0.753
22. NCI-H2087  0.737
23. NCI-H1703  0.724
24. HCC-44  0.662
25. A549  0.649
26. NCI-H1993  0.648
27. HCC-366  0.577
28. LK-2  0.519
29. LU99A  0.516
30. NCI-H441  0.448
31. IA-LM  0.4

Same assay, conditions: first compound 40 µM

In order of rising relative viability:
1. NCI-H727  0.395
2. LU99A  0.485
3. NCI-H1395  0.521
4. NCI-H441  0.554
5. NCI-H1666  0.605
6. HCC-366  0.618
7. LK-2  0.619
8. A549  0.622
9. IA-LM  0.694
10. HCC-44  0.753
11. NCI-H1993  0.773
12. NCI-H2126  0.804
13. EMC-BAC-2  0.813
14. NCI-H2087  0.818
15. SW 1573  0.84
16. EBC-1  0.844
17. COR-L23  0.876
18. NCI-H2405  0.885
19. NCI-H2085  0.902
20. COR-L 105  0.914
21. NCI-H1703  0.932
22. LOU-NH91  0.937
23. H3255  0.938
24. Calu-6  0.939
25. HOP-62  0.94
26. NCI-H520  0.969
27. NCI-H1299  0.991
28. NCI-H596  0.999
29. LCLC-103H  1.01
30. SK-MES-1  1.01
31. NCI-H838  1.06
32. NCI-H1793  1.17

Compound: C1CC(C2=C(C1)C3=C(N2)C=CC(=C3)Cl)C(=O)N [Selisistat] + CS(=O)(=O)CCNCc1ccc(-c2ccc3ncnc(Nc4ccc(OCc5cccc(F)c5)c(Cl)c4)c3c2)o1 [Lapatinib] (partner 2 µM)
Assay: as above
Settings: first compound 0.4 µM
In short: as §1

In order of falling relative viability:
1. NCI-H596  1.16
2. SW 1573  1.14
3. NCI-H1703  1.1
4. NCI-H838  1.09
5. HCC-366  1.09
6. NCI-H1395  1.09
7. Calu-6  1.06
8. LU99A  1.06
9. A549  1.05
10. NCI-H2405  1.01
11. NCI-H2087  1
12. HCC-44  0.983
13. HOP-62  0.974
14. COR-L23  0.969
15. NCI-H1299  0.967
16. NCI-H1650  0.918
17. EMC-BAC-2  0.869
18. LK-2  0.858
19. NCI-H2126  0.828
20. NCI-H2085  0.818
21. NCI-H520  0.811
22. NCI-H1793  0.793
23. LOU-NH91  0.753
24. NCI-H1666  0.751
25. IA-LM  0.723
26. NCI-H1993  0.683
27. NCI-H727  0.626
28. SK-MES-1  0.479
29. COR-L 105  0.298
30. NCI-H2170  0.265
31. EBC-1  0.256
32. H3255  0.225

Same assay, conditions: first compound 1.265 µM

In order of rising relative viability:
1. EBC-1  0.208
2. H3255  0.263
3. NCI-H2170  0.272
4. COR-L 105  0.338
5. SK-MES-1  0.525
6. NCI-H1666  0.574
7. NCI-H1793  0.636
8. NCI-H1650  0.74
9. LOU-NH91  0.741
10. LK-2  0.749
11. NCI-H1993  0.751
12. NCI-H2126  0.775
13. NCI-H2085  0.797
14. NCI-H727  0.841
15. EMC-BAC-2  0.875
16. NCI-H520  0.898
17. LU99A  0.913
18. IA-LM  0.931
19. A549  0.937
20. NCI-H1299  0.947
21. NCI-H838  0.965
22. NCI-H1395  0.973
23. HCC-366  0.977
24. SW 1573  1.02
25. COR-L23  1.03
26. HOP-62  1.03
27. NCI-H1703  1.06
28. Calu-6  1.09
29. NCI-H2087  1.13
30. NCI-H596  1.16
31. HCC-44  1.16

Same assay, conditions: first compound 4 µM

In order of falling relative viability:
1. NCI-H1703  1.12
2. A549  1.12
3. LU99A  1.06
4. NCI-H596  1.03
5. SW 1573  1.02
6. Calu-6  1.02
7. HCC-44  1.01
8. NCI-H1395  1
9. NCI-H1299  0.961
10. HOP-62  0.96
11. COR-L23  0.959
12. HCC-366  0.899
13. EMC-BAC-2  0.848
14. IA-LM  0.817
15. NCI-H520  0.814
16. LOU-NH91  0.741
17. NCI-H2085  0.725
18. LK-2  0.701
19. NCI-H2087  0.653
20. NCI-H838  0.627
21. NCI-H2126  0.623
22. NCI-H1650  0.579
23. NCI-H1666  0.437
24. SK-MES-1  0.411
25. COR-L 105  0.371
26. NCI-H2170  0.268
27. EBC-1  0.224
28. H3255  0.123

Same assay, conditions: first compound 12.65 µM

In order of rising relative viability:
1. EBC-1  0.243
2. H3255  0.245
3. NCI-H2170  0.28
4. COR-L 105  0.378
5. SK-MES-1  0.504
6. NCI-H1666  0.589
7. NCI-H1650  0.685
8. NCI-H520  0.751
9. NCI-H2085  0.753
10. LOU-NH91  0.762
11. NCI-H2126  0.794
12. NCI-H1793  0.816
13. HOP-62  0.884
14. EMC-BAC-2  0.894
15. NCI-H1395  0.91
16. NCI-H1993  0.913
17. LU99A  0.914
18. LK-2  0.935
19. COR-L23  0.935
20. NCI-H2087  0.946
21. Calu-6  0.949
22. NCI-H838  0.966
23. HCC-366  0.971
24. A549  0.974
25. NCI-H1299  0.991
26. HCC-44  1.02
27. NCI-H2405  1.03
28. SW 1573  1.04
29. NCI-H1703  1.05
30. NCI-H596  1.14

Same assay, conditions: first compound 40 µM

In order of rising relative viability:
1. EBC-1  0.244
2. NCI-H2170  0.253
3. H3255  0.271
4. COR-L 105  0.31
5. SK-MES-1  0.426
6. NCI-H1666  0.472
7. NCI-H1650  0.693
8. NCI-H2085  0.724
9. NCI-H727  0.725
10. LOU-NH91  0.758
11. NCI-H520  0.766
12. COR-L23  0.799
13. NCI-H1993  0.806
14. NCI-H1793  0.816
15. EMC-BAC-2  0.848
16. NCI-H2126  0.856
17. NCI-H1395  0.883
18. IA-LM  0.894
19. Calu-6  0.895
20. A549  0.95
21. NCI-H838  0.958
22. LU99A  0.962
23. NCI-H1299  0.964
24. NCI-H2087  1.03
25. NCI-H1703  1.05
26. LK-2  1.05
27. HCC-366  1.07
28. NCI-H2405  1.09
29. SW 1573  1.12
30. NCI-H596  1.12
31. HCC-44  1.13
32. HOP-62  1.14

Compound: C1CC(C2=C(C1)C3=C(N2)C=CC(=C3)Cl)C(=O)N [Selisistat] + C[C@@H](Oc1cc(-c2cnn(C3CCNCC3)c2)cnc1N)c1c(Cl)ccc(F)c1Cl [Crizotinib] (partner 1 µM)
Assay: as above
Settings: first compound 0.4 µM
In short: as §1

In order of falling relative viability:
1. NCI-H2126  1.1
2. NCI-H1650  1.09
3. LCLC-103H  1.08
4. SW 1573  0.841
5. NCI-H727  0.823
6. NCI-H838  0.819
7. NCI-H1993  0.803
8. NCI-H520  0.743
9. NCI-H1703  0.578
10. EBC-1  0.2
